The values below come from article PMC6452685, “Lysyl-tRNA synthetase as a drug target in malaria and cryptosporidiosis” (Proceedings of the National Academy of Sciences of the …, 2019).

One experiment concerns PfKRS1. The settings on record: cited from earlier work.
The next experiment concerns the target T1, CYP2C9 (Homo sapiens, UniProt P11712).
T1 construct: purchased Cypex, Dundee, UK; host or cells: bacterial membranes (bactosomes)
Nature of the experiment: Fluorescence-based CYP inhibition, CYP2C9. Type of experiment: in vitro ADME. The procedure:
(§1) 4.7 F lu or e s ce nce-based CYP I nhibition usin g recombinantly expressed CYP b actosomes Fl uorogeni c C YP i nhi bi t i on s t udi es w ere c ondu ct ed at 37 °C i n 96-well, flat-bot t om, cl ear p ol y s t y rene pl at es. I ncubat i on mi xt ures cont ai ni ng Eas y C YP bact os omes (1000 pmol /ml , 10 mg /ml C y pex TM, Dundee, UK), fl uorogeni c substrate (Cypex TM) and 50 mM potas s i um phosphat e buffer (p H 7. 4) w er e prepared at t he fol l ow i ng fi nal concent rat i ons : C YP1A2, 5 pmol /ml + 35 µ M et hox y res orufi n (ER) ; CYP2C9, 10 pm ol/ml + 30 µM 7-methoxy-4-(tri fl uo romethy l )-coumari n (MFC ); C YP 2C 19, 5 pm ol /ml + 25 µM 3-cy ano-7-eth oxycoumarin (CEC); C YP 2D 6, 10 pmol /ml + 6 µM 7-meth oxy-4-(ami nomethy l )- coumari n (MAMC ); C YP 3A4, 10 pmol /ml + 1 µM diethoxyfluorescein (DEF) and 10 pmol /ml + 15 µM 7-benz y l ox y qui nol i ne (BQ ). […] 0125 ( 1A2 and 2C 9 onl y ) o r 0. 025 mg /ml (al l ot her i s oforms ). […] Positive control inhibitor, miconazole, was prepared as a 500 µM s olution in DMSO and similarly diluted.
(§2) For eac h i sofo rm, 2 20 µl of i ncubati on mi x was added to each wel l of a 96-well, flat-bot t om, cl ear pol y s t y rene pl at e. Al i quot s (5 µl) of each compound 5 conce ntrati on was then mi x ed wi th 220 µl of the incubation mix and pre-incubated at 37 °C for 5 min (final test compound concentration range: […]

The target of another experiment is T2, CYP3A4 (Homo sapiens, UniProt P08684).
T2 construct: purchased Cypex, Dundee, UK; host or cells: bacterial membranes (bactosomes)
Kind of experiment: Fluorescence-based CYP inhibition, CYP3A4. The experiment is classed as in vitro ADME. As for the experimental part: as §1, §2

For the next experiment, the system named is 44 receptor/enzyme panel. Kind of experiment: Preliminary selectivity study in a 44 receptor/enzyme panel. The conditions noted are these: at a concentration of 10 μM.
A further experiment relates to Pf(K1). Kind of experiment: Drug resistant P. falciparum K1, [3H]-hypoxanthine incorporation. The conditions noted are these: Plasmodium falciparum, chloroquine-resistant. The experiment is classed as cell-based. An excerpt: (§3) 3.2 Cytotoxicity Studies (Dundee)
(§4) In vi t ro cy totox i ci ty s tudies can be ca rri ed out us i ng Hep G 2 (Human C aucas i an hepatocy te ca rci noma, ECACC cat. no. 850 114 30) us ed as i ndi cators f or g eneral mammal i an cel l tox i ci ty . […]
(§5) 3.3 In vitro Cell Assay D ata Analysis (Du ndee) […]
(§6) as 0%. Qual i ty control c ri teri a for passi ng pl ates were as fol l ow s : Z’ > 0.
(§7) < 15 . T he f ormula used to calculate Z’ is 1- 3´ (St D e v _ hi gh + St D e v_ low) . […]
(§8) Al l EC50 Curve fitti ng was undertaken usi ng XLFi t versi on 4.2 usi ng Model 205 wi th the foll owi ng 4 paramet ri c equat i on: A + (?-A) ,where A=% i nhi bi ti on at bo ttom, B=% i nhi bi ti on at top, C= EC , […]
(§9) D= slope, x= inhibitor concentration a nd y= % inhibition. […]
(§10) was fixed to 100 only when at least 50% of inhibition was reached. […]
(§11) Hoffmann-La Ro che Ltd) a nd resi stant strai ns K1 and TM90C2B (fr om the Malaria Research an d Reference Reag ent Res ou rce C enter, accu rate d es cri pti ons of the g eneti c backg roun ds of thes e strains can be obtained at http://www.beiresources.org) were cultivated in a variation of the medium prev i ous l y des cri bed (5, 6), c onsi sti ng of RPMI 16 40 su ppl emented wi th 0.5% ALBUMAX® II, 25 m M Hepes , 25 mM NaHC O3 (pH 7. […] The re s ul t s were recorded and expressed as a percentage of the untreated controls. […]

In a further experiment the test system is Pf(NF54). Nature of the experiment: Drug-sensitive P. falciparum NF54, [3H]-hypoxanthine incorporation. The experiment is classed as cell-based. The settings on record: Plasmodium falciparum, drug-sensitive strain.
Excerpt: as §3, §4, §5, §6, §7, §8, §9, §10, §11

The subject of the next experiment is C. hominis (TU502). Kind of experiment: Activity against Cryptosporidium hominis. The experiment is classed as cell-based.

Bounds are passed on as bounds.

T1 sequence (P11712 whole entry): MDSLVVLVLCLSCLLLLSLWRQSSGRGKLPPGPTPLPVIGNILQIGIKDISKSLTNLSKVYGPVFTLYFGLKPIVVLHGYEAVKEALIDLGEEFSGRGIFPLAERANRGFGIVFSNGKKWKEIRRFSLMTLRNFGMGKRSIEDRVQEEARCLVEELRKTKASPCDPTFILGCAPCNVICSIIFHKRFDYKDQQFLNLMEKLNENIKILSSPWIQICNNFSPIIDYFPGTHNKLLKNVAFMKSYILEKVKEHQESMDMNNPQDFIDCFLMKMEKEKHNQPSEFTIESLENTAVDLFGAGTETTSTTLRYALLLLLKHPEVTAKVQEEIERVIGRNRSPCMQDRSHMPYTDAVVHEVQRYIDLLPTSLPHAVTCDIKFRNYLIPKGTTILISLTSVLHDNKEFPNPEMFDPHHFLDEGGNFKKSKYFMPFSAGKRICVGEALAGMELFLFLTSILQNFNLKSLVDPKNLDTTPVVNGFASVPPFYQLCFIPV
T2 sequence (P08684 whole entry): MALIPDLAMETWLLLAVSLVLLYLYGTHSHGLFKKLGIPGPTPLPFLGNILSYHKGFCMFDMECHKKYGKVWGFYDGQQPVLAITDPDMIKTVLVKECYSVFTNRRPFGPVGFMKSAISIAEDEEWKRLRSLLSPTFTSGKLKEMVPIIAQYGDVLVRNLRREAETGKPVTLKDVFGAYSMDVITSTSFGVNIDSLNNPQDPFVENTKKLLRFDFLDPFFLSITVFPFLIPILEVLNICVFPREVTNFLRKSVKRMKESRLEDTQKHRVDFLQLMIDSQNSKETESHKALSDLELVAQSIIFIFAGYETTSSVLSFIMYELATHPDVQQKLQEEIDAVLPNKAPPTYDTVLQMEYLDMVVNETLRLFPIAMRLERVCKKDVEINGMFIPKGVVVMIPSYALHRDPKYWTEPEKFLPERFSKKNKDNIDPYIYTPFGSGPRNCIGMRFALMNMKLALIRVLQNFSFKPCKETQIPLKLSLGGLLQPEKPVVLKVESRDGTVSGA
Method for C. hominis (TU502): Thi s i s bas ed on methods previ ousl y reported (14). Mature P. falciparum stage V gametocytes (NF54)
were incubated with test compound for 24 h at 3 7°C i n 384-well plates containing complete culture
medi um (RPMI 1640, 25 mM HEPES, 2 g/l D-glucose, 2 g/l sodium bicarbonate, 50 mg/l
Gametogenesis was triggered by dis pens i ng 10 µl ookinete medium (RPMI 1640, 25 mM HEPES, 2 g/l
D-glucose, 2 g/l sodium bicarbonate, 50 mg/l hy pox ant hi ne, 100 µM xanthurenic acid) also
contai ni ng 2. 7 µg/ml anti-Pfs25-Cy3 into each well and cooling the plate on a metal block at 4 °C fo r
4 mi n. Fi fteen s l ater male gametogenesis was recorded by b ri ghtfi el d i magi ng usi ng ti m e s 6 object i v e
and then the pl ate stored at 2 6 °C for a fu rther 24 h to allow female gametes to develop. Female
gamete formation was assessed by fluorescence m icroscopy using x6 objective to identify anti-Pfs25-
gentian violet negative and positive controls.
3.1 3 Act iv it y a gains t Cry pt os pori diu m h omi nis (CALIBR)
Thi s i s bas ed on methods previ ousl y reported (10).

With `C[C@H]1CCC[C@H](C[C@H]2Cc3cc(O)cc(O)c3C(=O)O2)O1` [Compound 1, cladosporin, reference compound], in the experiment with PfKRS1, the “selectivity for cytosolic PfKRS1 compared with HsKRS” value is > 100 fold.
`O=C(NCC1(O)CCC(F)(F)CC1)c1cc(=O)c2cc(F)ccc2o1` [Compound 5]: the IC50 against CYP2C9 and against CYP3A4 was > 10 µM each time. The “activity in 44 receptor/enzyme panel” value in the experiment with 44 receptor/enzyme panel was “no activity”. Also, the values for the EC50 with Pf(K1), with Pf(NF54) and in the experiment on C. hominis (TU502) were 0.51 µM, 0.39 µM and 6 µM, respectively.

In general, IC50 refers to the concentration that inhibits the measured activity by half. In general, EC50 refers to the concentration at which the effect is half-maximal. A higher EC50 goes with weaker potency.
